Results published in patent US12528772B2, “Formulations of T-type calcium channel modulators and methods of use thereof” (Praxis Precision Medicines, Inc., priority 2019, dated 2026).

Tested on: T-type calcium channels in the thalamocortical circuit
Experiment: Phase 1 sleep EEG in healthy volunteers (NREM sigma)
Format: in vivo, human
Conditions: FIG. 12
Procedure: This was a 2-part, Phase 1 double blind, placebo controlled trial to assess the safety, tolerability, PK, and PD (including the KSS, the KDT, the SQSQ and 24-hour EEG recordings), of single, ascending (Part A: 20, 40, and 60 mg)) and multiple, ascending (Part B: 20 and 40 mg for 8 days) doses of the 20 mg tablet (formulation 3) in healthy participants. […] Variability in Cmax and AUC increased with increasing dose following a single oral dose of the 20 mg tablet formulation (formulation 3).
The T-type calcium channels expressed in the thalamus are critically involved in the generation and modulation of sleep spindles which are prominent thalamocortical oscillations during NREM sleep. Sleep spindles are detected in the EEG as the sigma frequency band (11-15 Hz) (FIG. 12).

CC(C)(C)NC(=O)CN1CCC(CNC(=O)c2cc(F)cc(Cl)c2)CC1 [the compound of formula (I)]
power in the sigma frequency band (11-15 Hz), NREM sleep EEG: decrease of power in the sigma frequency band
